Data on twelve molecules can be found in PubChem BioAssay (NCI).

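A five-concentration, 48-hour dose response in 96-well plates underlies each endpoint, interpolated linearly between surrounding concentrations. GI50 = concentration required for 50% inhibition of growth. The concentration for full growth arrest is given as TGI.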

Some test systems named below: A498 renal; ACHN renal; HL-60(TB) leukemia; NCI-H522 lung; SF-268 CNS; SF-539 CNS; SR leukemia; UACC-257 melanoma; MALME-3M melanoma; RXF 393 renal.
What all share (assay): NCI tumour cell line growth inhibition, 48 h

In the case of `COc1ccc(-c2coc3c4c(ccc3c2=O)OCO4)cc1OC`, the TGI in the assay on A498 renal, in the assay on ACHN renal, in the assay with HL-60(TB) leukemia, in the assay on NCI-H522 lung, in the assay with SF-268 CNS and with SF-539 CNS was greater than 100 µM each time. Also, the TGI in the assay on SR leukemia and with UACC-257 melanoma was greater than 100 µM in each case.

With `O=S(=O)(c1ccccc1)C1CN2OC1(S(=O)(=O)c1ccccc1)CC2c1ccc(Br)cc1` (stereo not drawn), the TGI with A498 renal was greater than 100 µM; in the assay with ACHN renal it was greater than 100 µM; in the assay with HL-60(TB) leukemia it was greater than 100 µM; in the assay with MALME-3M melanoma, greater than 100 µM; in the assay on NCI-H522 lung, greater than 100 µM; with RXF 393 renal, 46.5 µM. Further, the results for the TGI with SF-268 CNS, with SF-539 CNS and with UACC-257 melanoma were greater than 100 µM, 89.9 µM and greater than 100 µM, respectively.

Regarding `Cc1ccc(S(=O)(=O)c2ccc(N)cc2)cc1`, the TGI with A498 renal, in the assay on ACHN renal, with HL-60(TB) leukemia, in the assay with MALME-3M melanoma, with RXF 393 renal and in the assay on SF-539 CNS was greater than 100 µM throughout. The same molecule showed a TGI in the assay on UACC-257 melanoma greater than 100 µM.

On to `Cc1cc(C)nc(NS(=O)(=O)c2ccc(NC(=O)c3cccc4c(Nc5ccc(S(N)(=O)=O)cc5)c5ccccc5nc34)cc2)n1`, for which the TGI with A498 renal was greater than 100 µM; in the assay with ACHN renal, greater than 100 µM; with HL-60(TB) leukemia, 29.6 µM; with MALME-3M melanoma, 55.5 µM; in the assay with NCI-H522 lung it was 38.7 µM; in the assay on RXF 393 renal, greater than 81.8 µM. Also, the figures for the TGI with SF-268 CNS, in the assay on SF-539 CNS and in the assay with UACC-257 melanoma were greater than 67.4 µM, 20.5 µM and 72.4 µM, respectively.

As for `C/C(CC(=O)Nc1cccc(Cl)c1C)=N\NC(=O)c1ccncc1`, the TGI in the assay with HL-60(TB) leukemia was greater than 100 µM; in the assay with MALME-3M melanoma it was greater than 100 µM; in the assay on NCI-H522 lung, 55 µM; in the assay with RXF 393 renal it was 87.9 µM; with SF-268 CNS it was greater than 100 µM; in the assay with SF-539 CNS, greater than 100 µM. For the same molecule, the TGI in the assay on UACC-257 melanoma was greater than 100 µM.

On to `CCn1c(=O)c2c(=O)c3c4c(oc3oc2c2ccccc21)C(=O)c1ccccc1C4=O`, for which the GI50 with A498 renal is 0.461 µM; with MALME-3M melanoma, greater than 100 µM; in the assay on NCI-H522 lung it was greater than 100 µM; in the assay with RXF 393 renal, greater than 31.7 µM; in the assay with SF-268 CNS, greater than 71 µM; with SF-539 CNS it was 3.32 µM. Further, the GI50 in the assay on UACC-257 melanoma was greater than 100 µM. Besides, the TGI with A498 renal, in the assay with MALME-3M melanoma, in the assay with NCI-H522 lung, in the assay with RXF 393 renal, in the assay with SF-268 CNS and with SF-539 CNS was greater than 100 µM in each case. Besides, the TGI in the assay with UACC-257 melanoma is greater than 100 µM.

On to `CN(CCO)c1ccc(N2Cc3ccccc3OC3=C2C(=O)c2c(O)ccc(O)c2C3=O)cn1`, for which the GI50 in the assay with A498 renal was 2.17 µM; with ACHN renal, 0.0462 µM; with HL-60(TB) leukemia, 0.114 µM; with MALME-3M melanoma, 0.0833 µM; in the assay on NCI-H522 lung, 0.0323 µM; in the assay with RXF 393 renal, 0.0954 µM. In addition, the GI50 is 0.274 µM in the assay on SF-268 CNS, 0.214 µM in the assay on SF-539 CNS and 0.277 µM in the assay with UACC-257 melanoma. The TGI came to 5.66 µM in the assay with A498 renal; 0.179 µM in the assay on ACHN renal; 0.406 µM in the assay on HL-60(TB) leukemia; 0.245 µM with MALME-3M melanoma; 0.116 µM with NCI-H522 lung; 0.27 µM in the assay with RXF 393 renal. The figures for the TGI in the assay with SF-268 CNS, in the assay on SF-539 CNS and with UACC-257 melanoma were 0.938 µM, 0.524 µM and 0.791 µM, respectively.

On to `CC1=C(C(=O)Nc2ccc(Cl)c(Cl)c2)C(c2cccc(Oc3ccccc3)c2)NC(=O)N1` (stereo not drawn), for which the GI50 in the assay with ACHN renal was 6.6 µM; in the assay with HL-60(TB) leukemia, 22.8 µM; in the assay on NCI-H522 lung, 4.47 µM; in the assay with RXF 393 renal, 9.61 µM; with SF-268 CNS it was 6.65 µM; in the assay on SF-539 CNS, 6.78 µM. Further, the figures for the GI50 in the assay with SR leukemia and in the assay with UACC-257 melanoma were 28.1 µM and 11.9 µM, respectively. The TGI was 17.3 µM with ACHN renal; greater than 50 µM in the assay with HL-60(TB) leukemia; 26 µM with NCI-H522 lung; 26.5 µM in the assay on RXF 393 renal; 17.7 µM in the assay with SF-268 CNS; 17 µM in the assay on SF-539 CNS. The TGI in the assay with SR leukemia was greater than 50 µM; in the assay on UACC-257 melanoma, 42.6 µM.

`CCCN1CN(C(C(=O)N[C@@H]2C(=O)N3C2SC(C)(C)C3C(=O)O)c2ccc(O)cc2)CSC1=S` (stereo partly drawn): the TGI with A498 renal was greater than 100 µM; in the assay on ACHN renal it was greater than 100 µM; in the assay on HL-60(TB) leukemia, greater than 100 µM; in the assay on MALME-3M melanoma it was greater than 100 µM; in the assay on NCI-H522 lung it was 83.6 µM; with SF-268 CNS, greater than 100 µM. The TGI with SF-539 CNS and with UACC-257 melanoma was greater than 100 µM in each case.

With `COc1ncc(-c2ccc3ncnc(Nc4cccc(Cl)c4)c3c2)cc1NS(=O)(=O)C1CC1`, the GI50 was 0.519 µM in the assay on RXF 393 renal, 1.54 µM with SF-268 CNS, 2.87 µM in the assay with SF-539 CNS and greater than 100 µM with SR leukemia. Further, the TGI with RXF 393 renal, in the assay with SF-268 CNS, in the assay on SF-539 CNS and in the assay on SR leukemia was greater than 100 µM throughout.

For the molecule `NC(=O)OCCn1cc(-c2nc(-c3c[nH]c4ncccc34)cs2)c2ccccc21`, the GI50 is 0.905 µM in the assay with A498 renal; 2.05 µM in the assay with ACHN renal; 2.12 µM in the assay with HL-60(TB) leukemia; 1.49 µM in the assay with NCI-H522 lung; 1.78 µM with RXF 393 renal; 1.48 µM in the assay on SF-268 CNS. Moreover, the GI50 is 1.61 µM in the assay with SF-539 CNS, 1.08 µM with SR leukemia and 2.08 µM in the assay with UACC-257 melanoma. Also, the TGI with A498 renal is 2.87 µM; with ACHN renal it was 8.24 µM; with HL-60(TB) leukemia, 5.45 µM; in the assay on NCI-H522 lung, 4.42 µM; in the assay with RXF 393 renal it was 5.56 µM; in the assay with SF-268 CNS, 6.77 µM. The TGI in the assay on SF-539 CNS was determined as 4.5 µM; in the assay with SR leukemia, 7.05 µM; in the assay on UACC-257 melanoma, 7.88 µM.

Take `CN[C@@H](C)[C@@H](NC)c1ccccc1`: the TGI with A498 renal, in the assay with ACHN renal, with NCI-H522 lung, in the assay with RXF 393 renal, in the assay on SF-539 CNS and in the assay on UACC-257 melanoma was greater than 100 µM each time.
